In patent publication US7119073B2, “Peptides and their use as inhibitors of hepatitis C virus ns3 protease” (Istituto Di Ricerche Di Biologia Molecolare P. Angeletti SpA, priority 2001, dated 2006):
Where a SMILES comes first, the peptide text is derived from it. The star is where a group is joined. NHPhenethyl = c1ccc(CCN*)cc1; Cbz = O=C(OCc1ccccc1)*; Boc = CC(C)(C)OC(=O)*

What follows are compounds tested against T1, NS3 protease domain complexed to a modified form of the NS4A peptide (Pep4AK) (Hepatitis C virus genotype 1b, UniProt P26663) (assay: HCV NS3 protease domain/NS4A cofactor peptide assay (Assay B)). Details: NS3 protease domain/NS4A cofactor peptide assay; read-out: Assay B (IC50 class).
T1 construct: NS3 protease domain (residues 1027–1206 of the HCV polyprotein)
T1 sequence (P26663 1027-1206, other chains not shown): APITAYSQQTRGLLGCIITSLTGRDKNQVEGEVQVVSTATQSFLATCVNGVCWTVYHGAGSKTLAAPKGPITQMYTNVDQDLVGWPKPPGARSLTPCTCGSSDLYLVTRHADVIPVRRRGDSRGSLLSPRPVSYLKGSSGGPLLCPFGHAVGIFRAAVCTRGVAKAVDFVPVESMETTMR
Type: biochemical

| Compound | IC50 [µM] |
| --- | --- |
| CC(C)C[C@H](NC(=O)C1(Cc2cccc(C(=O)O)c2)Cc2ccccc2N1)C(=O)N[C@@H](CS)C(=O)NCCc1ccc(C(=O)O)cc1 (mixture of isomers) [Compound 701] | < 100 |
| CC(C)C[C@H](NC(=O)C1(Cc2ccc(C(=O)O)s2)Cc2ccccc2N1)C(=O)N[C@@H](CS)C(=O)NCCc1ccc(C(=O)O)cc1 (mixture of isomers) [Compound 703] | < 100 |
| CC(C)C[C@H](NC(=O)C1(Cc2ccc(C(=O)O)cc2)Cc2ccccc2N1)C(=O)N[C@@H](CS)C(=O)NCCc1ccc(C(=O)O)cc1 (single isomer, unassigned) [Compound 702] | < 100 |
| CC(C)C[C@H](NC(=O)C1(Cc2ccc(C(=O)O)s2)CCc2ccccc2N1)C(=O)N[C@@H](CC(F)F)C(=O)NCCc1ccc(C(=O)O)cc1Cl (single isomer, unassigned) [Compound 711a] | < 100 |
| CC(C)C[C@H](NC(=O)C1(Cc2cccc(C(=O)O)c2)CCc2ccccc2N1)C(=O)N[C@@H](CC(F)F)C(=O)NCCc1ccc(C(=O)O)cc1Cl (single isomer, unassigned) [Compound 712a] | < 100 |
| CC(C)C[C@H](NC(=O)C1(Cc2ccsc2C(=O)O)CCc2ccccc2N1)C(=O)N[C@@H](CC(F)F)C(=O)NCCc1c(F)cc(C(=O)O)cc1F (single isomer, unassigned) [Compound 713] | < 100 |
| CC(C)C[C@H](NC(=O)C1(Cc2ccsc2C(=O)O)CCc2ccccc2N1)C(=O)N[C@@H](CC(F)F)C(=O)NCCc1cccc(/C=C/C(=O)O)c1 (single isomer, unassigned) [Compound 714] | < 100 |

Same assay, conditions: Table 1; NS3 protease domain/Pep4AK, 4AB peptide substrate; read-out: Assay B

| IC50 [µM] | Compound |
| --- | --- |
| < 100 | CC(C)COC(=O)N[C@@H](CCC(=O)O)C(=O)N[C@@H](CC(C)C)C(=O)N[C@@H](CS)C(=O)NCC(O)c1ccccc1 (mixture of isomers) [Compound 106] |
| < 100 | CC(C)COC(=O)N[C@@H](CCC(=O)O)C(=O)N[C@@H](CC(C)C)C(=O)N[C@@H](CS)C(=O)NCC(C)c1ccccc1 (mixture of isomers) [Compound 107] |
| < 100 | CC(C)C[C@H](NC(=O)[C@H](CCC(=O)O)NC(=O)OCc1ccccc1)C(=O)N[C@@H](CS)C(=O)NCCc1ccccc1 [Compound 101] (Cbz-Glu-Leu-Cys-NHPhenethyl) |
| < 100 | CC(C)C[C@H](NC(=O)[C@@H](NC(=O)OCc1ccc(C(=O)O)cc1)C(C)C)C(=O)N[C@@H](CS)C(=O)NCCc1ccccc1 [Compound 102] |
| < 100 | CC(C)CC(NC(=O)C(CCC(=O)O)NC(=O)OC(C)(C)C)C(=O)NC(CS)C(=O)NCCc1ccccc1 (stereo not drawn) [Compound 103] (Boc-Glu-Leu-Cys-NHPhenethyl; configuration not given here) |
| < 100 | CC(C)COC(=O)N[C@@H](CCC(=O)O)C(=O)N[C@@H](CC(C)C)C(=O)N[C@@H](CS)C(=O)NC[C@H](C)c1ccccc1 [Compound 108] |
| < 100 | CC(C)COC(=O)N[C@@H](CCC(=O)O)C(=O)N[C@@H](CC(C)C)C(=O)N[C@@H](CS)C(=O)NCC1(c2ccccc2)CC1 [Compound 109] |
| < 100 | CC(C)COC(=O)NC(CCC(=O)O)C(=O)NC(CC(C)C)C(=O)NC(CS)C(=O)NCC1(c2ccccc2)CCC1 (stereo not drawn) [Compound 110] |
| < 100 | CC(C)COC(=O)N[C@@H](CCC(=O)O)C(=O)N[C@@H](CC(C)C)C(=O)N[C@@H](CS)C(=O)NCC(CC(=O)O)c1ccc(Cl)cc1 (stereo partly drawn) [Compound 111] |
| < 100 | CC(C)COC(=O)NC(CCC(=O)O)C(=O)NC(CC(C)C)C(=O)NC(CS)C(=O)NCCc1ccccc1F (stereo not drawn) [Compound 112] |
| < 100 | CC(C)COC(=O)NC(CCC(=O)O)C(=O)NC(CC(C)C)C(=O)NC(CS)C(=O)NCCc1ccccc1Cl (stereo not drawn) [Compound 113] |
| < 100 | CC(C)CC(NC(=O)C(CCC(=O)O)NC(=O)OCc1ccccc1)C(=O)NC(CS)C(=O)NCCc1ccccc1Cl (stereo not drawn) [Compound 116] |
| < 100 | CC(C)COC(=O)NC(CCC(=O)O)C(=O)NC(CC(C)C)C(=O)NC(CS)C(=O)NCCc1ccccc1Br (stereo not drawn) [Compound 117] |
| < 100 | Cc1ccccc1CCNC(=O)C(CS)NC(=O)C(CC(C)C)NC(=O)C(CCC(=O)O)NC(=O)OCC(C)C (stereo not drawn) [Compound 118] |
| < 100 | COc1ccccc1CCNC(=O)C(CS)NC(=O)C(CC(C)C)NC(=O)C(CCC(=O)O)NC(=O)OCC(C)C (stereo not drawn) [Compound 119] |
| < 100 | CCOc1ccccc1CCNC(=O)C(CS)NC(=O)C(CC(C)C)NC(=O)C(CCC(=O)O)NC(=O)OCC(C)C (stereo not drawn) [Compound 120] |
| < 100 | CC(C)COC(=O)NC(CCC(=O)O)C(=O)NC(CC(C)C)C(=O)NC(CS)C(=O)NCCc1ccccc1C(F)(F)F (stereo not drawn) [Compound 121] |
| < 100 | COC(=O)c1ccccc1CCNC(=O)C(CS)NC(=O)C(CC(C)C)NC(=O)C(CCC(=O)O)NC(=O)OCC(C)C (stereo not drawn) [Compound 122] |
| < 100 | CC(C)COC(=O)NC(CCC(=O)O)C(=O)NC(CC(C)C)C(=O)NC(CS)C(=O)NCCc1ccccc1Oc1ccccc1 (stereo not drawn) [Compound 123] |
| < 100 | CC(C)COC(=O)NC(CCC(=O)O)C(=O)NC(CC(C)C)C(=O)NC(CS)C(=O)NCCc1ccccc1OCc1ccccc1 (stereo not drawn) [Compound 124] |
| < 100 | CC(C)COC(=O)NC(CCC(=O)O)C(=O)NC(CC(C)C)C(=O)NC(CS)C(=O)NCCc1cccc(F)c1 (stereo not drawn) [Compound 126] |
| < 100 | CC(C)COC(=O)NC(CCC(=O)O)C(=O)NC(CC(C)C)C(=O)NC(CS)C(=O)NCCc1cccc(Cl)c1 (stereo not drawn) [Compound 127] |

| IC50 [µM] | Compound |
| --- | --- |
| < 100 | CC(C)COC(=O)NC(CCC(=O)O)C(=O)NC(CC(C)C)C(=O)NC(CS)C(=O)NCCc1cccc(Br)c1 (stereo not drawn) [Compound 128] |
| < 100 | CC(C)COC(=O)NC(CCC(=O)O)C(=O)NC(CC(C)C)C(=O)NC(CS)C(=O)NCCc1cccc(O)c1 (stereo not drawn) [Compound 129] |
| < 100 | Cc1cccc(CCNC(=O)C(CS)NC(=O)C(CC(C)C)NC(=O)C(CCC(=O)O)NC(=O)OCC(C)C)c1 (stereo not drawn) [Compound 130] |
| < 100 | CC(C)COC(=O)NC(CCC(=O)O)C(=O)NC(CC(C)C)C(=O)NC(CS)C(=O)NCCc1cccc(C(F)(F)F)c1 (stereo not drawn) [Compound 131] |
| < 100 | COC(=O)c1cccc(CCNC(=O)C(CS)NC(=O)C(CC(C)C)NC(=O)C(CCC(=O)O)NC(=O)OCC(C)C)c1 (stereo not drawn) [Compound 132] |
| < 100 | CC(C)COC(=O)NC(CCC(=O)O)C(=O)NC(CC(C)C)C(=O)NC(CS)C(=O)NCCc1cccc(-c2ccccc2)c1 (stereo not drawn) [Compound 136] |
| < 100 | CC(C)COC(=O)NC(CCC(=O)O)C(=O)NC(CC(C)C)C(=O)NC(CS)C(=O)NCCc1cccc(Oc2ccccc2)c1 (stereo not drawn) [Compound 137] |
| < 100 | CC(C)COC(=O)NC(CCC(=O)O)C(=O)NC(CC(C)C)C(=O)NC(CS)C(=O)NCCc1ccc(Cl)cc1 (stereo not drawn) [Compound 138] |
| < 100 | CC(C)COC(=O)NC(CCC(=O)O)C(=O)NC(CC(C)C)C(=O)NC(CS)C(=O)NCCc1ccc(Br)cc1 (stereo not drawn) [Compound 139] |
| < 100 | Cc1ccc(CCNC(=O)C(CS)NC(=O)C(CC(C)C)NC(=O)C(CCC(=O)O)NC(=O)OCC(C)C)cc1 (stereo not drawn) [Compound 140] |
| < 100 | COc1ccc(CCNC(=O)C(CS)NC(=O)C(CC(C)C)NC(=O)C(CCC(=O)O)NC(=O)OCC(C)C)cc1 (stereo not drawn) [Compound 141] |
| < 100 | COc1ccc(CCNC(=O)C(CS)NC(=O)C(CC(C)C)NC(=O)C(CCC(=O)O)NC(=O)OC(C)(C)C)cc1 (stereo not drawn) [Compound 142] |
| < 100 | COc1ccc(CCNC(=O)C(CS)NC(=O)C(CC(C)C)NC(=O)C(CCC(=O)O)NC(=O)OCc2ccccc2)cc1 (stereo not drawn) [Compound 143] |
| < 100 | CCOc1ccc(CCNC(=O)C(CS)NC(=O)C(CC(C)C)NC(=O)C(CCC(=O)O)NC(=O)OCC(C)C)cc1 (stereo not drawn) [Compound 144] |
| < 100 | CC(C)COC(=O)NC(CCC(=O)O)C(=O)NC(CC(C)C)C(=O)NC(CS)C(=O)NCCc1ccc(Oc2ccccc2)cc1 (stereo not drawn) [Compound 145] |
| < 100 | CC(C)COC(=O)NC(CCC(=O)O)C(=O)NC(CC(C)C)C(=O)NC(CS)C(=O)NCCc1ccc(O)cc1 (stereo not drawn) [Compound 146] |
| < 100 | CC(C)COC(=O)NC(CCC(=O)O)C(=O)NC(CC(C)C)C(=O)NC(CS)C(=O)NCCc1ccc([N+](=O)[O-])cc1 (stereo not drawn) [Compound 147] |
| < 100 | CC(C)COC(=O)NC(CCC(=O)O)C(=O)NC(CC(C)C)C(=O)NC(CS)C(=O)NCCc1ccc(C(C)(C)C)cc1 (stereo not drawn) [Compound 148] |
| < 100 | CC(C)COC(=O)NC(CCC(=O)O)C(=O)NC(CC(C)C)C(=O)NC(CS)C(=O)NCCc1ccc(C(F)(F)F)cc1 (stereo not drawn) [Compound 149] |
| < 100 | COC(=O)c1ccc(CCNC(=O)C(CS)NC(=O)C(CC(C)C)NC(=O)C(CCC(=O)O)NC(=O)OCC(C)C)cc1 (stereo not drawn) [Compound 150] |
| < 100 | COC(=O)Cc1ccc(CCNC(=O)C(CS)NC(=O)C(CC(C)C)NC(=O)C(CCC(=O)O)NC(=O)OCC(C)C)cc1 (stereo not drawn) [Compound 153] |

| Compound | IC50 [µM] |
| --- | --- |
| CC(C)COC(=O)NC(CCC(=O)O)C(=O)NC(CC(C)C)C(=O)NC(CS)C(=O)NCCc1ccccc1 (stereo not drawn) [Compound 104] | < 100 |
| CC(C)CC(NC(=O)C(CCC(=O)O)NC(=O)OC(C)(C)C)C(=O)NC(CC(F)F)C(=O)NCCc1ccccc1 (stereo not drawn) [Compound 105] | < 100 |
| CC(C)COC(=O)N[C@@H](CCC(=O)O)C(=O)N[C@@H](CC(C)C)C(=O)N[C@@H](CS)C(=O)NCCc1cccc(/C=C/C(=O)O)c1 [Compound 134] | < 10 |
| CCOC(=O)/C=C/c1cccc(CCNC(=O)[C@H](CS)NC(=O)[C@H](CC(C)C)NC(=O)[C@H](CCC(=O)O)NC(=O)OCC(C)C)c1 [Compound 135] | < 100 |
| CC(C)COC(=O)NC(C(=O)NC(CC(C)C)C(=O)NC(CS)C(=O)NCCc1ccc(C(=O)O)cc1)C(C)C (stereo not drawn) [Compound 152] | < 10 |

Same assay, conditions: Table 2; NS3 protease domain/Pep4AK; read-out: Assay B

| IC50 [µM] | Compound |
| --- | --- |
| < 100 | CC(C)C[C@H](NC(=O)[C@H](CCC(=O)O)NC(=O)C1CCC(C(=O)O)CC1)C(=O)N[C@@H](CS)C(=O)NCCc1ccccc1Cl (mixture of isomers) [Compound 233] |

Same assay, conditions: Table 4; NS3 protease domain/Pep4AK; read-out: Assay B

| IC50 [µM] | Compound |
| --- | --- |
| < 100 | CC(C)COC(=O)N[C@@H](CCC(=O)O)C(=O)NC(CC(F)(F)F)C(=O)N[C@@H](CS)C(=O)NCCc1ccc(C(=O)O)cc1 (mixture of isomers) [Compound 403] |
